According to patent publication US20210277264A1, “INK COMPOSITIONS” (HEWLETT-PACKARD DEVELOPMENT COMPANY, L.P., priority 2018, published 2021):
Where two headings read alike, the source gives them in different places.

Test: Partition coefficient (log P 1-octanol/water) of organic co-solvents
Source text: The hydrophilicity of the organic co-solvent can be quantified as a partition coefficient. As used herein, “partition coefficient” refers to a concentration ratio of a compound in an equilibrium mixture of two immiscible phases, and can be a measure of the difference in solubility of the compound in the two immiscible phases. Formula I provides an equation of quantifying the hydrophilicity of the organic co-solvents of the present disclosure, as follows: […]

[1] = equilibrium mixture of 1-octanol and water

Partition Coefficient (log P1-octanol/water)	SMILES	Partition Coefficient (log P1-octanol/water) [1]
−0.40	CC1(C)NC(=O)NC1=O [5,5-dimethyl hydantoin]	–
2.34	CCCCCCCCO [Ink 1-octanol, 1-octanol]	–
−0.40	O=C1CCCN1CCO [N-(2-hydroxyethyl)-2-pyrrolidinone]	–
−1.39	CC1(C)C(=O)N(CCO)C(=O)N1CCO [di-(2-hydroxyethy)-5,5-dimethylhydantoin]	–

Further lines, the compound ahead of its results:

SMILES	Partition Coefficient (log P1-octanol/water)	Partition Coefficient (log P1-octanol/water) [1]
O=C1CCCN1 [2-pyrrolidone]	–	−0.10
CCC(CO)(CO)CO [ethylhydroxy propanediol]	–	−0.50
OCCOCCOCCO [triethylene glycol]	−1.00	–
O [water]	−0.825	–
